In patent US20110144039A1, “ANTIOXIDATIVE AND HEPATOPROTECTIVE COMPOSITIONS CONTAINING DIARYHEPTANOIDS FROM ALNUS JAPONICA” (RNL BIO CO., LTD., priority 2009, published 2011):
Where two headings read alike, the source gives them in different places.

Tests used:
[1] = TOSC (total oxyradical scavenging capacity) assay, peroxyl radicals generated from ABAP; type: biochemical; details: both oxyradicals; for scavenging capacity for peroxyl radicals and peroxynitrite: rank in words
Procedure: In order to measure the antioxidative activities of the A. japonica sample fractions, the radical scavenging capacities of the fractions were measured in the following manner using the total oxyradical scavenging capacity (TOSC) assay. The TOSC assay was performed by a modification of the method proposed by Winston et al. (Free Radic. Biol. Med., 24: 480˜493, 1998) (J. Agric. Food Chem. 56, 10510-10514, 2008).
Peroxyl radicals were generated by the thermal homolysis of 2,2′-azobisamidinopropane (ABAP) at 35° C., and peroxynitrite was generated by the spontaneous decomposition of SIN-1.
Then, a total volume of 1 ml of the reaction solution was placed in a 10-ml vial sealed with a rubber septum. For detection of the produced ethylene gas, a gas chromatograph (GC), equipped with a DB-05 capillary column and a flame ionization detector) (FID), was used, an oven set was 60° C., and the injector and the detector were set at 180° C. As a mobile phase, helium was injected into the column at a rate of 2 ml/min. For quantitative determination of the amount of ethylene gas in the vial, 150 μl of gas was sampled from the vial with a gas-tight syringe using a headspace technique and injected into the injector.
The area under the kinetic curve (AUC) was obtained by integrating the graph determined from the results of the above experiment, and the TOSC value was calculated according to the following equation 1 and shown in Table 1 below:
TOSC=100−(∫SA/∫CA×100) [Equation 1]

[2] = test system: primarily cultured hepatocytes of rats; assay: Hepatoprotective activity: inhibition of tert-butyl hydroperoxide-induced necrosis (LDH release) in primary hepatocytes; type: cell-based, white rats; details: 1.2 mM tBH for 50 minutes
Procedure: In order to measure the hepatoprotective activities of the A. japonica sample fractions, the primarily cultured hepatocytes of white rats were isolated, and then the inhibitory abilities of the fractions against necrosis induced by treating the isolated hepatocytes with 1.2 mM of tert-butyl hydroperoxide for 50 minutes were examined (Park E J et al., Planta Med, 71: 508˜513, 2005).
Hepatocytes were isolated from white rats according to the method of Seglen et al. Briefly, white rats were anesthetized and the abdomen was incised. Then, a catheter was inserted into the portal vein and perfused with Ca^2+, Mg^2+-free Hank's balanced salt solution bubbled with a mixed gas of 5% CO2 and 95% O2 at 37° C. so as to remove blood from the liver. Then, the catheter was perfused with 0.05% type IV collagenase and 1 mM CaCl2 solution. The liver tissue was removed from the body, and a hepatocyte suspension was prepared from the liver tissue and centrifuged at 50×g for 2 minutes. The precipitated hepatocytes were collected and washed twice with Ca^2+, Mg^2+-free Hank's balanced salt solution. The washed hepatocytes were added at a concentration of 1×10^6 cells/ml to Williams' Medium E (WME, GibcoBRL, USA) containing 10% (v/v) fetal bovine serum (FBS, GibcoBRL), 10^−8 M insulin, 50 U/ml of penicillin and 50 μg/ml of streptomycin (Sigma) in an incubator coated with type I collagen, and were then cultured under 5% CO2 at 37° C. After 2 hours of the culture, the cells were washed with Hank's balanced salt solution to remove non-adhered cells, and the medium was replaced with fresh medium. Then, the cells were cultured under 5% CO2 at 37° C. for 16 hours and then used in the experiment.
Herein, tBH is metabolized into free radical intermediates, which initiate lipid peroxidation to affect the cell integrity, and release LDH into the medium, thus forming covalent bonds with cellular molecules causing damage to the cells.

[3] = Rattus norvegicus, Hepatocyte, 50 min, means ± SE of three independent experiments in triplicate, read-out: ED50 (the source's name)
[4] = Rattus norvegicus, Hepatocyte, 50 min, read-out: LDH release inhibitory rate (ED50)
[5] = read-out: LDH release inhibitory rate (ED50)

Molecule	activities against reactive oxygen species ([1]; in words)	effect on the inhibition of LDH release ([2]; in words)	scavenging capacity for peroxyl radicals and peroxynitrite [1]	EC50 [2, 3] [µM]	EC50 [2, 4] [µM]	EC50 [2, 5] [µM]
platyphyllonol-5-xylose [Platyphyllone-5-xylose]	weak	no effect	–	–	–	–
O=C(/C=C/CCc1ccc(O)c(O)c1)CCc1ccc(O)c(O)c1 [hirsutenone]	–	–	highest	3.08 ± 0.14	3.08	–
alnuside A	–	–	second highest	–	–	26.5
COc1cc(C2Oc3cc([C@H]4Oc5cc(O)cc(O)c5C(=O)[C@@H]4O)ccc3OC2CO)ccc1O (stereo partly shown) [Silibinin, reference compound]	–	–	–	131 ± 6.7	131	–
alnuside B	–	–	second highest	–	–	25.9
rubranoside C	–	–	second highest	–	–	12.8
O=C(CCc1ccc(O)c(O)c1)C[C@@H](O)CCc1ccc(O)c(O)c1 [hirsutanonol]	–	–	highest	6.28 ± 0.81	6.28	–
